{"source": "patent US8703726B2", "about": "“Methods for treating prostate conditions” (PTC Therapeutics, Inc., priority 2009, dated 2014)", "key": {"[1]": {"system": "LNCaP prostate tumor cells", "assay": "LNCaP tumors in SCID mice: Compound #10 as monotherapy and with docetaxel", "protocol": "(§1) Male C.B.17 SCID mice (Charles River Laboratory; Wilmington, Mass.) were inoculated with LNCaP prostate tumor cells (6.1×10^6 cells/mouse) obtained from the ATCC (Manassas, Va.). […] Mice were inoculated using a 25 gauge needle in the right flank in a volume of 0.2 mL. A total of 95 mice were injected, of which 32 were used.\n(§2) Treatment started on Day 0 and continued through Day 31.\n(§3) Body Weight: One day prior to the initiation of the study, the mice were weighed. Thereafter, mice were weighed every week and on the day that the study was terminated.\n(§4) Tumor Size: Tumors were measured every 3 to 4 days using digital calipers. To calculate tumor volume, the following calculation was used, where L equals the longest dimension measurement and W equals the shortest dimension measurement:\n(§5) Data Analysis: Tumor growth was calculated as: [1-[(final tumor size minus initial tumor size in test compound treated-mice)/(final tumor size minus initial tumor size in vehicle-treated mice)]×100%\n(§6) Percent change in body weight was calculated as: [(Body weight on Day of study)−(initial body weight)/(initial body weight)]×100%\n(§7) Differences in tumor size, tumor growth, and body weight change among groups were analyzed by ANOVA (analysis of variance) (SigmaStat 3.0)."}, "[2]": {"system": "LNCaP prostate tumor cells", "conditions": "mouse, in vivo, iv, 3 mg/kg", "protocol": "as §1, §2, §3, §4, §5, §6, §7"}, "PC3 xenografts": {"system": "PC3 xenografts", "assay": "PC3 tumors in mice: Compound #10 as monotherapy and with docetaxel", "protocol": "PC3 cells (CRL 1435) obtained from the American Type Tissue Collection (ATCC, Manassas, Va.) were thawed and seeded at 0.5×10^7 cells per 175 mm^2 flask. Cells were fed and expanded on a regular schedule to reach a given density prior to passage. Flasks were between 80-90% confluent, but not >95% confluent on the day of harvest. Harvest occurred ˜48 hr after the previous split to allow for full recovery.\nTo harvest the cells, medium was removed from the flasks and the cell layers rinsed with 37° C. PBS. A volume of 3 mL trypsin-EDTA was added per 175 cm^2 surface area and incubated at room temperature for 5 minutes until the cells detached. The cells were collected in 7-10 mL ice cold complete medium and were transferred to a conical tube. The tube was placed immediately on ice. After all flasks were harvested, the cells were pelleted by centrifugation at 4° C. Cells were re-suspended at 2.5×10^7 cells/mL in Hank's Salt Solution and 10 mM HEPES. Cells were stored on ice until the time of tumor inoculation (which was less than 1 h later).\nTumor Cell Injection: Tumor cells were kept on ice at all times. […] A 25-gauge needle was used for tumor cell injections. Tumor cells were injected in a volume of 0.2 mL subcutaneously. A total of 100 mice were inoculated, of which 69 were used in the study.\nSeventeen days after inoculation, the mice were randomized into six groups. At this time, the majority of the tumors had reached a volume of 170-415 mm^3. Randomization of the mice was performed by using the formula RAND ( )*5000 from Microsoft Excel. […] Animals with tumors that were not within the 170-415 mm^3 range were excluded from the study.\nFurthermore, all animals in a group were taken off study when the mean tumor size in that group reached 1000 mm^3.\nas §4\nDifferences in mean tumor size, tumor growth, and body weight change were compared across groups using analysis of variance (ANOVA) (SigmaStat 3.0).\nTo calculate the time to progression, defined as the number of days for a tumor to reach 1000 mm^3, tumor growth vs time was individually plotted for each animal. The time to reach 1000 mm^3 estimated for each animal. […] The median and mean time for each treatment group to reach 1000 mm^3 was then calculated and groups were compared using ANOVA (SigmaStat 3.0).\nas §3"}, "HT1080 cells": {"system": "HT1080 cells", "assay": "Cell cycle analysis by propidium iodide flow cytometry in HT1080 cells (% cells in S-phase, Table 24)", "type": "cell-based, human", "conditions": "same tumor cells", "experimental": "Experimental Design. […] After treatment, cells were trypsinized, and stained with propidium iodide (PI) dye to measure DNA content of individual cells by flow cytometry. Output comprised histograms showing relative DNA content in 10,000 cells.\nWhile compounds which cause greater than 20% of the cells to accumulate in S-phase at 100 nM are considered active, a larger percentage of cells may be accumulated in S-phase at lower doses depending on the Compound, as shown in FIG. 12 for example."}, "[3]": {"system": "LNCaP prostate tumor cells", "conditions": "mouse, in vivo, po, 25 mg/kg", "protocol": "as §1\n(§8) Twenty-seven days after inoculation, the mice were randomized into 4 groups as outlined in Table 33. […] Treatment started on Day 0 and continued through Day 30.\nas §3, §4\n(§9) Tumor growth was calculated as: [1-[(final tumor size minus initial tumor size in test compound treated-mice)/(final tumor size minus initial tumor size in vehicle-treated mice)]×100%\nas §6, §7"}, "[4]": {"system": "LNCaP prostate tumor cells", "assay": "LNCaP tumors in SCID mice: Compound #10 as monotherapy and with bicalutamide", "protocol": "as §1, §8, §3, §4, §9, §6, §7"}, "[5]": {"conditions": "Docetaxel, 3 mg/kg IV on Days 1 and 8, Vehicle, QD, daily"}, "[6]": {"conditions": "Bicalutamide, 25 mg/kg QD on Days 0, 1, 2, 3, 6, 7, 8, 9, and 10, L21 vehicle, QD, oral"}}, "note": "Like-named read-outs stand apart in the source and are kept apart here."}
{"compound": "CC(=O)O[C@@]12CO[C@@H]1C[C@H](O)[C@@]1(C)C(=O)[C@H](O)C3=C(C)[C@@H](OC(=O)[C@H](O)[C@@H](NC(=O)OC(C)(C)C)c4ccccc4)C[C@@](O)([C@@H](OC(=O)c4ccccc4)[C@H]21)C3(C)C", "note": "[docetaxel]", "values": [{"measurement": "mean±SD tumor size", "setting": "[1]; Day 31, Compound #10 10 mg/kg PO QD, docetaxel 3 mg/kg Days 1 and 8", "value": "1017±458", "unit": "mm3"}, {"measurement": "inhibition of tumor size or of the increase in tumor size versus vehicle", "setting": "[1]; Day 31, docetaxel 3 mg/kg Days 1 and 8", "value": "No statistically significant differences"}, {"measurement": "Percent Inhibition Relative to Vehicle: Tumor Growth From Day 0 to 31", "setting": "[1]; [5]", "value": 17, "unit": "%"}, {"measurement": "Percent Inhibition Relative to Vehicle: Tumor Volume at Day 31", "setting": "[1]; [5]", "value": 12, "unit": "%"}, {"measurement": "Day of Maximal Loss (body weight)", "setting": "[2]", "value": "(Day 13)"}, {"measurement": "Maximal Body Weight Loss From Initial Weight", "setting": "[2]", "value": "−15", "unit": "%"}, {"measurement": "Average Time on Therapy", "setting": "PC3 xenografts; 3 mg/kg IV Day 1, 8 and 10 mg/kg Day 29, vehicle 22", "value": 23, "unit": "days"}, {"measurement": "Median Time to Reach 1000 mm^3 (time to progression)", "setting": "PC3 xenografts; 3 mg/kg IV Day 1, 8 and 10 mg/kg Day 29, vehicle 23", "value": 22, "unit": "days"}, {"measurement": "body weight change", "setting": "PC3 xenografts; PC3 tumor-bearing mice, Day 35 / Day 42", "value": "significantly more weight loss"}, {"measurement": "median time to progression (tumor ≧1000 mm^3)", "setting": "PC3 xenografts; docetaxel IV 3 mg/kg on Day 1 and at 8 and 10 mg/kg on Day 29", "value": 22, "unit": "days"}, {"measurement": "tumors vs vehicle-treated mice", "setting": "PC3 xenografts; docetaxel IV, up to Day 35", "value": "not significantly different from the tumors in vehicle-treated mice"}]}
{"compound": "NC(Cn1ccc(=O)c(O)c1)C(=O)O", "note": "(centres unmarked) [mimosine]", "values": [{"measurement": "effect of comparator on cell cycle (and VEGF production) (data not shown)", "setting": "HT1080 cells", "value": "does not delay or prolong the cell cycle or reduce VEGF production"}]}
{"compound": "CC(O)(CS(=O)(=O)c1ccc(F)cc1)C(=O)Nc1ccc(C#N)c(C(F)(F)F)c1", "note": "(centres unmarked) [bicalutamide]", "values": [{"measurement": "Day of Maximal Loss (body weight)", "setting": "[3]", "value": 20, "unit": "days"}, {"measurement": "Maximal Body Weight Loss From Initial Weight", "setting": "[3]", "value": "−5.3", "unit": "%"}, {"measurement": "Percent Inhibition Relative to Vehicle: Tumor Growth From Day 0 to 31", "setting": "[4]; [6]", "value": 9.3, "unit": "%^"}, {"measurement": "Percent Inhibition Relative to Vehicle: Tumor Volume at Day 31", "setting": "[4]; [6]", "value": 7.2, "unit": "%^"}, {"measurement": "mean±SD tumor size", "setting": "[4]; Day 30, Compound #10 10 mg/kg PO QD, bicalutamide 25 mg/kg QD", "value": "1059±321", "unit": "mm3"}]}
